The values below are quoted from earlier work in PMC7751758, “Repurposing Sigma-1 Receptor Ligands for COVID-19 Therapy?” (Frontiers in Pharmacology, 2020).

The test system of this series is SARS-CoV. Particulars: mouse, in vivo.

With `CCN(CC)CCCC(C)Nc1ccnc2cc(Cl)ccc12` (stereo not shown) [Chloroquine], the clinical disease entry is on record as “did protect mice from clinical disease” and the “virus replication in lungs” value was “did not inhibit virus replication in lungs”.
Regarding `CN(C)CCCN1c2ccccc2Sc2ccc(Cl)cc21` [Chlorpromazine], the clinical disease entry is “did protect mice from clinical disease” and the “virus replication in lungs” value is recorded as “did not inhibit virus replication in lungs”.
